Legend:
[1] = system: estrogen sensitive cells (uterus of rabbit); experiment: Binding function to estrogen sensitive cells (3H-estradiol replacement, uterus of rabbit); conditions: 100 nM sample; smaller value = higher binding; 54-56% at 0 nM
Description: Binding function of the active ingredients to estrogen sensitive cells.
The binding function of the active ingredient to tumor cells was tested by the method described in Biochemical Experiment text Hormone (I) (Nippon Seikagaku) (Tokyo Kagakudojin page 217-252, April 25, 1977).
Estradiol labelled by tritium (^3 H) was incubated with uterus of rabbit to bind it and then, the sample was added to the system to measure the amount of free ^3 H-estradiol which was replaced by the added estradiol. The results are shown as the binding ^3 H-estradiol(%) in the cases adding […] of the sample.

[2] = system: estrogen sensitive cells (uterus of rabbit); experiment: as above; conditions: 10 nM sample; smaller value = higher binding; 54-56% at 0 nM
[3] = Acute toxicity (LD50), ICR-JCL female mice, Litchfield-Wilcoxon graph method; conditions: mouse, in vivo, one dose, in olive oil, after 7 days
Description: In the measurement of LD50, eight ICR-JCL female mice (5 week age) were used as one group to breed in a transparent polycage, and each drug was dissolved in olive oil and administrated by routes of intraperitoneal injection (i.p.), oral administration (p.o.) and subcutaneous injection (s.c.), to the mice at one dose and then, their value of LD50 by Litchfield-Wilcoxon graph method is obtained after 7 days.
(§1) The tests (1), (2), (3) for various active ingredients were carried out.

[4] = system: human breast cancer cells having steroid hormone receptor; experiment: Antitumor test (in vivo), human breast cancer cells implanted in BALB/C-nu/nu mice; conditions: tumors excised day 25
Description: Pieces of human breast cancer cells having steroid hormone receptor was subcutaneously implanted under the arm of mice (BALB/C-nu/nu) (5 week age) to form solid tumors. After the solid tumors were established, each dispersion or solution of the active ingredient in olive oil was administered by oral dose or intraperitoneal injection each other day for 10 times or every days for 20 times. Twenty five days from the initial administration, the tumors were excised. Efficiency of inhibition of tumor proliferation was measured from (A) each average weight of excised tumors for 10 mice (the active ingredient was administrated) and (B) each average weight of excised tumors for 10 control mice. [formula]
as §1

3-hydroxy-1,3,5(10)-estratriene-17β-[methyl-2-{N'-(2-chloroethyl)-N'-nitrosoureido}-2-deoxy-α-D-glucuronoyloxy]acetate [Test No. 2 (Table 17)]
Binding 3H-estradiol [1]: 17%
Binding 3H-estradiol [2]: 37%

CN(N=O)C(=O)N[C@H]1C(O)O[C@H](C(=O)OCC(=O)O[C@H]2CC[C@H]3[C@@H]4CCc5cc(O)ccc5[C@H]4CC[C@]23C)[C@@H](O)[C@@H]1O (stereo partly drawn) [Test No. 6 (Table 17), 3-hydroxy-1,3,5(10)-estratriene-17β-[2-(N'-methyl-N'-nitrosoureido)-2-deoxy-D-glucuronoyloxy]acetate]
LD50 at 168 h ([3]; ip): > 660 mg/kg
LD50 at 168 h ([3]; po): > 1000 mg/kg
Binding 3H-estradiol [1]: 16%
Binding 3H-estradiol [2]: 28%
Inhibitory effect of tumor, efficiency ([4]; i.p., 5 mg/kg): 92%
Inhibitory effect of tumor, efficiency ([4]; i.p., 10 mg/kg): 97%
Inhibitory effect of tumor, efficiency ([4]; p.o., 10 mg/kg): 77%
Inhibitory effect of tumor, efficiency ([4]; p.o., 40 mg/kg): 84%

C[C@]12CC[C@@H]3c4ccc(O)cc4CC[C@H]3[C@@H]1CC[C@@H]2OC(=O)Cn1cc(F)c(=O)[nH]c1=O [Test No. 7 (Table 17), 3-hydroxy-1,3,5(10)-estratriene-17β-[5-fluoro-2,4-dioxo-pyrimidin-1-yl]acetate]
LD50 at 168 h ([3]; ip): > 605 mg/kg
LD50 at 168 h ([3]; po): > 2000 mg/kg
Binding 3H-estradiol [1]: 25%
Binding 3H-estradiol [2]: 36%
Inhibitory effect of tumor, efficiency ([4]; i.p., 10 mg/kg): 90%
Inhibitory effect of tumor, efficiency ([4]; i.p., 20 mg/kg): 100%

CN(Cc1cnc2nc(N)nc(N)c2n1)c1ccc(C(=O)N[C@@H](CCC(=O)OCC(=O)O[C@H]2CC[C@H]3[C@@H]4CCc5cc(O)ccc5[C@H]4CC[C@]23C)C(=O)OCC(=O)O[C@H]2CC[C@H]3[C@@H]4CCc5cc(O)ccc5[C@H]4CC[C@]23C)cc1 [Test No. 9 (Table 17), bis 3-hydroxy-1,3,5(10)-estratriene-17β-oxycarbonylmethyl-4-amino-N^10-methylpteroylglutamate]
LD50 at 168 h ([3]; ip): > 235 mg/kg
LD50 at 168 h ([3]; po): > 3000 mg/kg
Binding 3H-estradiol [1]: 19%
Binding 3H-estradiol [2]: 35%
Inhibitory effect of tumor, efficiency ([4]; i.p., 5 mg/kg): 98%
Inhibitory effect of tumor, efficiency ([4]; p.o., 10 mg/kg): 80%
Inhibitory effect of tumor, efficiency ([4]; p.o., 50 mg/kg): 93%

COc1cccc2c1C(=O)c1c(O)c3c(c(O)c1C2=O)C[C@@](O)(C(=O)CO)C[C@@H]3O[C@H]1C[C@H](N)[C@H](O)[C@H](C)O1 [Test No. 13 (Table 18), 3-glycoloyl-1,2,3,4,6,11-hexahydro-3,5,12-trihydroxy-10-methoxy-6,11-dioxo-1-naphthacenyl-3'-amino-2',3',6'-trideoxy-α-L-lyxo-hexapyranoside, reference compound]
LD50 at 168 h ([3]; po): 730 mg/kg
Inhibitory effect of tumor, efficiency ([4]; i.p., 10 mg/kg): 20%
Inhibitory effect of tumor, efficiency ([4]; p.o., 10 mg/kg): 20%

COc1cccc2c1C(=O)c1c(O)c3c(c(O)c1C2=O)C[C@@](O)(C(=O)CO)C[C@@H]3O[C@H]1C[C@H](NCC(=O)O[C@H]2CC[C@H]3[C@@H]4CCc5cc(O)ccc5[C@H]4CC[C@]23C)[C@H](O)[C@H](C)O1 [Test No. 14 (Table 18), 3-glycoloyl-1,2,3,4,6,11-hexahydro-3,5,12-trihydroxy-10-methoxy-6,11-dioxo-1-naphthacenyl-3'-[3-hydroxy-1,3,5(10)-estratriene-17β-oxycarbonylmethyl]amino-2',3',6'-trideoxy-α-L-lyxo-hexapyranoside]
LD50 at 168 h ([3]; po): > 3000 mg/kg
Inhibitory effect of tumor, efficiency ([4]; p.o., 10 mg/kg): 63%
Inhibitory effect of tumor, efficiency ([4]; p.o., 50 mg/kg): 71%

COc1cccc2c1C(=O)c1c(O)c3c(c(O)c1C2=O)C[C@@](O)(C(=O)CO)C[C@@H]3O[C@H]1C[C@H](NCC(=O)O[C@H]2CC[C@H]3[C@@H]4CCc5cc(OC(C)=O)ccc5[C@H]4CC[C@]23C)[C@H](O)[C@H](C)O1 [Test No. 15 (Table 18), 3-glycoloyl-1,2,3,4,6,11-hexahydro-3,5,12-trihydroxy-10-methoxy-6,11-dioxo-1-naphthacenyl-3'-[3-acetoxy-1,3,5(10)-estratriene-17β-oxycarbonylmethyl]amino-2',3',6'-trideoxy-α-L-lyxo-hexapyranoside]
LD50 at 168 h ([3]; po): > 3000 mg/kg
Inhibitory effect of tumor, efficiency ([4]; p.o., 10 mg/kg): 53%
Inhibitory effect of tumor, efficiency ([4]; p.o., 50 mg/kg): 79%

C[C@]12CC[C@@H]3c4ccc(O)cc4CC[C@H]3[C@@H]1CC[C@@H]2O [compound 1]
Binding 3H-estradiol [1]: 16%
Binding 3H-estradiol [2]: 36%

CO[C@H]1O[C@H](C(=O)OCC(=O)O[C@H]2CC[C@H]3[C@@H]4CCc5cc(O)ccc5[C@H]4CC[C@]23C)[C@@H](O)[C@H](O)[C@H]1NC(=O)N(CCCl)N=O [compound 2]
LD50 at 168 h ([3]; ip): > 180 mg/kg
LD50 at 168 h ([3]; po): > 1000 mg/kg
Binding 3H-estradiol [1]: 30%
Binding 3H-estradiol [2]: 45%
Inhibitory effect of tumor, efficiency ([4]; i.p., 1 mg/kg): 90%
Inhibitory effect of tumor, efficiency ([4]; i.p., 3 mg/kg): 92%
Inhibitory effect of tumor, efficiency ([4]; p.o., 10 mg/kg): 79%
Inhibitory effect of tumor, efficiency ([4]; p.o., 40 mg/kg): 82%

CO[C@H]1O[C@H](CO)[C@@H](O)[C@H](O)[C@H]1NC(=O)N(CCCl)N=O [compound 3]
Binding 3H-estradiol [1]: 55%
Binding 3H-estradiol [2]: 55%

COc1cccc2c1C(=O)c1c(O)c3c(c(O)c1C2=O)C[C@@](O)(C(C)=O)C[C@@H]3O[C@H]1C[C@H](N)[C@H](O)[C@H](C)O1 [compound 4]
Binding 3H-estradiol [1]: 56%
Binding 3H-estradiol [2]: 56%

O=c1[nH]cc(F)c(=O)[nH]1 [compound 8]
Binding 3H-estradiol [1]: 53%
Binding 3H-estradiol [2]: 55%

CCC(=O)Oc1ccc2c(c1)CC[C@@H]1[C@@H]2CC[C@]2(C)[C@@H](OC(=O)CN[C@H]3C[C@H](O[C@H]4C[C@](O)(C(=O)CO)Cc5c(O)c6c(c(O)c54)C(=O)c4c(OC)cccc4C6=O)O[C@@H](C)[C@H]3O)CC[C@@H]12 [compound 16]
LD50 at 168 h ([3]; po): > 3000 mg/kg
Inhibitory effect of tumor, efficiency ([4]; p.o., 10 mg/kg): 69%
Inhibitory effect of tumor, efficiency ([4]; p.o., 50 mg/kg): 83%

COc1cccc2c1C(=O)c1c(O)c3c(c(O)c1C2=O)C[C@@](O)(C(=O)CO)C[C@@H]3O[C@H]1C[C@H](NCC(=O)O[C@H]2CC[C@H]3[C@@H]4CCc5cc(OC(=O)c6ccccc6)ccc5[C@H]4CC[C@]23C)[C@H](O)[C@H](C)O1 [compound 17]
LD50 at 168 h ([3]; po): > 3000 mg/kg
Inhibitory effect of tumor, efficiency ([4]; p.o., 10 mg/kg): 70%
Inhibitory effect of tumor, efficiency ([4]; p.o., 50 mg/kg): 79%

COc1cccc2c1C(=O)c1c(O)c3c(c(O)c1C2=O)C[C@@](O)(C(C)=O)C[C@@H]3O[C@H]1C[C@H](N)[C@H](O)[C@H](C)O1 [compound 18]
LD50 at 168 h ([3]; ip): 5 mg/kg
LD50 at 168 h ([3]; po): 20 mg/kg
Inhibitory effect of tumor, efficiency ([4]; i.p., 0.5 mg/kg): 47%
Inhibitory effect of tumor, efficiency ([4]; i.p., 1 mg/kg): 78%
Inhibitory effect of tumor, efficiency ([4]; p.o., 1 mg/kg): 59%

COc1cccc2c1C(=O)c1c(O)c3c(c(O)c1C2=O)C[C@@](O)(C(C)=O)C[C@@H]3O[C@H]1C[C@H](NCC(=O)O[C@H]2CC[C@H]3[C@@H]4CCc5cc(O)ccc5[C@H]4CC[C@]23C)[C@H](O)[C@H](C)O1 [compound 19]
LD50 at 168 h ([3]; ip): > 15 mg/kg
LD50 at 168 h ([3]; po): > 2000 mg/kg
Inhibitory effect of tumor, efficiency ([4]; i.p., 0.1 mg/kg): 90%
Inhibitory effect of tumor, efficiency ([4]; i.p., 0.5 mg/kg): 99%
Inhibitory effect of tumor, efficiency ([4]; p.o., 1 mg/kg): 72%
Inhibitory effect of tumor, efficiency ([4]; p.o., 5 mg/kg): 85%

C[C@]12CC[C@@H]3c4ccc(OC(=O)c5ccccc5)cc4CC[C@H]3[C@@H]1CC[C@@H]2OC(=O)COCCNc1nc(N2CC2)nc(N2CC2)n1 [compound 20]
LD50 at 168 h ([3]; ip): > 15 mg/kg
LD50 at 168 h ([3]; po): > 2000 mg/kg
Inhibitory effect of tumor, efficiency ([4]; i.p., 0.1 mg/kg): 74%
Inhibitory effect of tumor, efficiency ([4]; p.o., 1 mg/kg): 78%
Inhibitory effect of tumor, efficiency ([4]; p.o., 5 mg/kg): 87%

N[C@@H](Cc1ccc(N(CCCl)CCCl)cc1)C(=O)O [compound 21]
LD50 at 168 h ([3]; ip): 6.2 mg/kg
LD50 at 168 h ([3]; po): 15.9 mg/kg
Inhibitory effect of tumor, efficiency ([4]; i.p., 0.1 mg/kg): 51%
Inhibitory effect of tumor, efficiency ([4]; i.p., 0.5 mg/kg): 57%
Inhibitory effect of tumor, efficiency ([4]; p.o., 1 mg/kg): 61%
Inhibitory effect of tumor, efficiency ([4]; p.o., 3 mg/kg): 72%

Reference: US4360663A, “Steroid hormone-antitumor derivatives” (Kureha Kagaku Kogyo Kabushiki Kaisha, priority 1978, dated 1982)
